PMC8305652, “Copper(II) Complexes Containing Natural Flavonoid Pomiferin Show Considerable In Vitro Cytotoxicity and Anti-inflammatory Effects” (International Journal of Molecular Sciences, 2021)

Legend:
[1] = test system: THP-1 cells; assay: intracellular production of reactive oxygen species, DCFH2-DA; format: cell-based, human; settings: THP-1, 200 nM; for ROS production, long term: 23.5 h, pyocyanin 100 μM as radical-forming control; for increase of total ROS levels: 1.5 h experiment
Method: THP-1 cells were used for the determination of the potential of tested compounds to initiate the intracellular ROS production, as was described previously with some minor modifications. Cells in serum-free RPMI 1640 medium without phenol red were seeded into black 96-well plates (5 × 10^4 cells/100 µL/well). After 2 h of incubation, the cells were treated with copper(II) complexes 1–5 at a concentration of 200 nM, and pyocyanin at a final concentration of 100 μM was added into control group to trigger production of reactive oxygen species (ROS), respectively. After the incubation at 37 °C for either 1.5 h or 23.5 h, dichlorofluorescin diacetate (DCFH2-DA) (5 μg/mL) was added and cells were kept under the same conditions hereafter. Thirty minutes later, fluorometric measurement of the fluorescent product DCF was conducted using a Tecan Infinite F200 microplate reader (Tecan, Männedorf, Switzerland) with λ(ex./em.) = 485/520 nm.

[2] = test system: NF-κB; design: method as in PMID 23947936; settings: 1.25 µM; cited from earlier work
[3] = test system: ACHN, NCI-H23, PC-3, MDA-MB-231, LOX-IMVI, colon carcinoma cell lines; design: method as in PMID 17662606; settings: 24 h of incubation, range over cell lines; cited from earlier work
[4] = test system: HuCCA-1, KB, HeLa and T47D cell lines; design: method as in PMID 21922909; settings: 48 h incubation, range over cell lines; cited from earlier work
[5] = test system: primary culture of human hepatocytes (Hep); assay: toxicity against primary culture of human hepatocytes; format: cell-based; settings: tested range 0.1–100 μM
[6] = test system: TNF-α in differentiated THP-1 macrophages; assay: TNF-α secretion, ELISA; format: cell-based, human; settings: 200 nM, 1 h pre-treatment, LPS 1 µg/mL, 24 h
Method: Differentiated THP-1 macrophages (see above) were pre-treated with either 200 nM solutions of the tested complexes, or 200 nM solution of prednisone dissolved in 0.1% DMF or the vehicle (0.1% (v/v) DMF solution) for 1 h, as described previously. The concentration of TNF-α was measured using a Human TNF-α ELISA Kit (Diaclone, Besançon, France), according to the manufacturer’s manual. Each experiment was conducted in triplicate.

[7] = test system: NF-κB in differentiated THP-1 macrophages; assay: immunocytochemical analysis of NF-κB nuclear translocation; format: cell-based, human; settings: 200 nM, 1 h pre-treatment, 1 h LPS (1 µg/mL), fluorescence microscopy
Method: To differentiate the THP-1 monocytes to macrophages, phorbol myristate acetate (PMA) was used at the final concentration of 50 ng/mL. The cells were split into 8-well cell culture glass slides (SPL, Gyeonggi-do, South Korea) at a concentration of 3 × 10^5 cells/300 µL/well. Monocytes were differentiated by PMA treatment for 24 h and then the medium was changed. Macrophages were washed with PBS, transferred into a serum-free medium and incubated for 2 h. After 1 h pre-treatment with 5 (200 nM), prednisone (200 nM) or 0.1% DMF (v/v) solution used as a control, NF-κB nuclear translocation was triggered by the addition of LPS (1 µg/mL). The macrophages were washed with PBS and fixed with 4% formaldehyde 1 h later. Permeabilization was performed using 0.1% v/v Triton X-100 (Merck). After blocking with 3% bovine serum albumin (BSA; Merck, Darmstadt, Germany) dissolved in PBS, the primary antibody anti-NF-κB p65 (Abcam, Cambridge, UK, product No. ab16502) was added at a concentration of 2.5 µg/mL and incubated at 4 °C overnight. Then a secondary anti-rabbit antibody labelled by Alexa Fluor 488® (Cell Signalling, Danvers, MA, USA) product No. 4412, dilution 1:1500) was applied in dark at 4 °C for 1 h. […] The NF-κB migration activity was evaluated by fluorescent microscopy after the nail polish cured using the fluorescence microscope IX73 (Olympus, Tokyo, Japan).

[8] = test system: IκB and MAPKs p38, ERK1/2, JNK in THP-1 macrophages; assay: IκB and MAPK signalling pathways, Western blot; format: cell-based, human; settings: 200 nM, 1 h pre-treatment, 30 min after LPS
Method: Macrophages derived from THP-1 cells were used to evaluate the influence of tested complexes on the signalling pathway leading to activation of transcription factors NF-κB and AP-1. To differentiate THP-1 monocytes into macrophages, the cells were stimulated with phorbol myristate acetate (PMA), as described above. The level of inhibitor of NF-κB (IĸB) and phosphorylation (activation) of mitogen-activated protein kinases (MAPKs) p38, ERK1/2, and JNK was determined in a way similar to that described previously. Above mentioned proteins were detected by the following primary antibodies: anti-IĸB-α at the dilution 1:500 (Cell Signalling, Danvers, MA, USA; products No. 4814), anti-phospho-SAPK/JNK at the dilution 1:500 (Cell Signalling; products No. 4668), anti-p44/42 MAPK (ERK1/2) at the dilution 1:1000 (Cell Signalling; products No. 4695), anti-phospho-p44/42 MAPK (ERK1/2) at the dilution 1:1000 (Cell Signalling; products No. 4370), anti-p38 MAPK at the dilution 1:1000 (Cell Signalling; products No. 9212), anti-phospho-p38 MAPK antibodies at the dilution 1:1000 (Cell Signalling; products No. 4511), anti-SAPK/JNK at a dilution of 1:250 (Sigma-Aldrich, product No. SAB4200176), and anti-β-actin at a dilution of 1:5000 (Abcam, Cambridge, UK; product No. 8226). […] The amount of bound secondary antibody was determined using ECL reagent (Bio-Rad, Hercules, CA, USA). […]

Row | Compound | ROS production, short term ([1]; 1.5 h) | ROS production, long term [1] | NF-κB activation by inhibition of IκB degradation [2] | GI50 [3] [µM] | ED50 [4] [µM] | IC50 ([5]; Hepatocyte) [µM] | secretion of TNF-α [6] | increase of total ROS levels [1] [%] | NF-κB nuclear translocation [7] | IC50 [5] [µM] | IκB and MAPK intracellular signalization [8]
1 | CC(C)=CCc1c2c(c3occ(-c4ccc(O)c(O)c4)c(=O)c3c1O)C=CC(C)(C)O2 [pomiferin, 3-(3,4-dihydroxyphenyl)-5-hydroxy-8,8-dimethyl-6-(3-methylbut-2-ene-1-yl)-4H,8H-benzo[1,2-b:3,4-b′]dipyran-4-one] | did not increase the amount of ROS | did not increase the amount of ROS | inhibited NF-κB activation | 1.32 to 13.3 | 0.6 to 24 | > 50 | – | – | – | – | –
2 | CC(C)=CCc1c2c(c3occ(-c4ccc(O)c(O)c4)c(=O)c3c1[O-])C=CC(C)(C)O2.CO.O=[N+]([O-])[O-].[Cu+2].c1ccc(-c2ccnc3c2ccc2c(-c4ccccc4)ccnc23)cc1 [Complex 4, (3-(3,4-dihydroxyphenyl)-8,8-dimethyl-6-(3-methylbut-2-en-1-yl)-4H,8H-benzo[1,2-b:3,4-b′]dipyran-4-one-5-olato-κ^2O4:O5)(4,7-diphenyl-1,10-phenanthroline–κ^2N:N)copper(II) nitrate methanol solvate] | – | pro-oxidant effect almost diminished | – | – | – | – | did not affect the TNF-α synthesis | 87 | blocked the nuclear translocation | > 100 | –
3 | (3-(3,4-dihydroxyphenyl)-8,8-dimethyl-6-(3-methylbut-2-en-1-yl)-4H,8H-benzo[1,2-b:3,4-b′]dipyran-4-one-5-olato-κ^2O4:O5)(dipyrido[3,2-a:2′,3′-c]phenazine–κ^2N4:N5)copper(II) nitrate methanol solvate [Complex 5] | – | elevated the ROS levels similarly as pyocyanin | – | – | – | – | decreased its production | – | the NF-κB levels in the nucleus decreased | > 100 | did not affect the intracellular signalization
4 | CC(C)=CCc1c2c(c3occ(-c4ccc(O)c(O)c4)c(=O)c3c1[O-])C=CC(C)(C)O2.Cc1ccnc(-c2cc(C)ccn2)c1.O.O.O=[N+]([O-])[O-].[Cu+2] [Complex 2, (3-(3,4-dihydroxyphenyl)-8,8-dimethyl-6-(3-methylbut-2-en-1-yl)-4H,8H-benzo[1,2-b:3,4-b′]dipyran-4-one-5-olato-κ^2O4:O5)(4,4′-dimethyl-2,2′-bipyridine–κ^2N:N)copper(II) nitrate dihydrate] | – | pro-oxidant effect almost diminished | – | – | – | – | decreased its production | 55 | – | > 100 | did not affect the intracellular signalization
